{"source": "patent US20050124684A1", "about": "“5-(hydroxymethyl) furfural and derivatives as inhibitors of TNFalpha and IL-1beta production” (priority 2003, published 2005)", "key": {"TNFα": {"test_system": "TNFα", "test": "Inhibition of LPS-induced TNFα expression in PBMCs (ELISA)", "format": "cell-based", "conditions": "LPS-stimulated PBMCs; for Concentration of TNFα in PBMCs / Inhibition ratio of production of TNFα in PBMCs: overnight", "experimental": "(§1) Peripheral blood […] (PBMCs) were isolated from fresh blood using a Ficoll-Paque Plus reagent (Amersham Bioscience) according to the protocol recommended by the manufacturer. The cells were suspended in a RPMI 1640 medium containing 10% FBS at a concentration of 1×10^5 cells/ml and seeded in a 96-well plate (1×10^4 cells total in each well). Each reaction was carried out in three wells. […] In a positive control, dexamethason (DEX), an anti-inflammatory agent, instead of 5-HMF, was added (final concentration 10 μM). In a positive control, 10 μl of the medium, instead of 5-HMF, was added. The plate was incubated at 37° C. under 5% CO2 for 15 minutes. After 10 μl aliquots of 100 μg/ml of lipopolysaccharide (LPS) were added to all wells except for the negative control, the plate was incubated at 37° C. under 5% CO2 overnight. The plate was spun at 1000 rpm for 15 minutes and the supernatants were collected. The concentrations of TNFα and IL-1β were measured by the TNFα ELISA (Enzyme Linked Immunosorbent Assay) Kit and IL1-β ELISA Kit (Jingmei Bioengineer Technology). The inhibition ratios of TNFα and IL1-β were calculated as follows and the results are shown in Tables 1 and 2: TNFα Inhibition Ratio (%)=[TNFα]control−[TNFα]5-HMF/[TNFα]control×100% IL1-β Inhibition Ratio (%)=[IL1-β]control−[IL1-β]5-HMF/[IL1-β]control×100% where [TNFα]5-HMF is the concentration of TNFα in PBMCs treated with 5-HMF and LPS, [TNFα]control is the concentration of TNFα in PBMCs treated with LPS and the medium, [IL1-β]5-HMF is the concentration of IL1-β in PBMCs treated with 5-HMF and LPS, and [IL1-β]control is the concentration of IL1-β in PBMCs treated with LPS and the medium."}, "IL-1β": {"test_system": "IL-1β", "test": "Inhibition of LPS-induced IL-1β expression in PBMCs (ELISA)", "format": "cell-based", "conditions": "LPS-stimulated PBMCs; for Concentration of IL-1β in PBMCs / Inhibition ratio of production of IL-1β in PBMCs: overnight", "experimental": "as §1"}, "[1]": {"conditions": "at the concentration of 300 μg/ml"}}, "data": [{"compound": "O=Cc1ccc(CO)o1", "note": "[5-HMF, 5-(hydroxymethyl)furfural]", "values": [{"measurement": "Concentration of TNFα in PBMCs", "setting": "TNFα; 5-HMF 3 μg/ml", "result": "124.4 ± 15.2", "unit": "pg/mL"}, {"measurement": "Inhibition ratio of production of TNFα in PBMCs", "setting": "TNFα; 5-HMF 3 μg/ml", "result": "15.7 ± 10.3", "unit": "%"}, {"measurement": "Concentration of TNFα in PBMCs", "setting": "TNFα; 5-HMF 10 μg/ml", "result": "107.9 ± 20.0", "unit": "pg/mL"}, {"measurement": "Inhibition ratio of production of TNFα in PBMCs", "setting": "TNFα; 5-HMF 10 μg/ml", "result": "26.8 ± 13.6", "unit": "%"}, {"measurement": "Concentration of TNFα in PBMCs", "setting": "TNFα; 5-HMF 30 μg/ml", "result": "82.9 ± 27.9", "unit": "pg/mL"}, {"measurement": "Inhibition ratio of production of TNFα in PBMCs", "setting": "TNFα; 5-HMF 30 μg/ml", "result": "43.8 ± 18.9", "unit": "%"}, {"measurement": "Concentration of TNFα in PBMCs", "setting": "TNFα; 5-HMF 100 μg/ml", "result": "39.3 ± 19.7", "unit": "pg/mL"}, {"measurement": "Inhibition ratio of production of TNFα in PBMCs", "setting": "TNFα; 5-HMF 100 μg/ml", "result": "73.4 ± 13.4", "unit": "%"}, {"measurement": "Concentration of TNFα in PBMCs", "setting": "TNFα; 5-HMF 300 μg/ml", "result": "0.3 ± 6.4", "unit": "pg/mL"}, {"measurement": "Inhibition ratio of production of TNFα in PBMCs", "setting": "TNFα; 5-HMF 300 μg/ml", "result": "99.3 ± 4.3", "unit": "%"}, {"measurement": "Inhibition of expression of TNFα (in words)", "setting": "TNFα; [1]", "result": "completely inhibited"}, {"measurement": "Inhibition of expression of TNFα (in words)", "setting": "TNFα; over the tested concentrations", "result": "concentration-dependent"}, {"measurement": "Concentration of IL-1β in PBMCs", "setting": "IL-1β; 5-HMF 3 μg/ml", "result": "69.9 ± 12.6", "unit": "pg/mL"}, {"measurement": "Inhibition ratio of production of IL-1β in PBMCs", "setting": "IL-1β; 5-HMF 3 μg/ml", "result": "40.2 ± 10.8", "unit": "%"}, {"measurement": "Concentration of IL-1β in PBMCs", "setting": "IL-1β; 5-HMF 10 μg/ml", "result": "62.7 ± 10.5", "unit": "pg/mL"}, {"measurement": "Inhibition ratio of production of IL-1β in PBMCs", "setting": "IL-1β; 5-HMF 10 μg/ml", "result": "46.4 ± 9.0", "unit": "%"}, {"measurement": "Concentration of IL-1β in PBMCs", "setting": "IL-1β; 5-HMF 30 μg/ml", "result": "40.1 ± 2.4", "unit": "pg/mL"}, {"measurement": "Inhibition ratio of production of IL-1β in PBMCs", "setting": "IL-1β; 5-HMF 30 μg/ml", "result": "65.7 ± 2.0", "unit": "%"}, {"measurement": "Concentration of IL-1β in PBMCs", "setting": "IL-1β; 5-HMF 100 μg/ml", "result": "13.0 ± 3.7", "unit": "pg/mL"}, {"measurement": "Inhibition ratio of production of IL-1β in PBMCs", "setting": "IL-1β; 5-HMF 100 μg/ml", "result": "88.8 ± 3.1", "unit": "%"}, {"measurement": "Concentration of IL-1β in PBMCs", "setting": "IL-1β; 5-HMF 300 μg/ml", "result": "0 ± 5.0", "unit": "pg/mL"}, {"measurement": "Inhibition ratio of production of IL-1β in PBMCs", "setting": "IL-1β; 5-HMF 300 μg/ml", "result": "100 ± 4.3", "unit": "%"}, {"measurement": "Inhibition of expression of IL-1β (in words)", "setting": "IL-1β; [1]", "result": "completely inhibited"}, {"measurement": "Inhibition of expression of IL-1β (in words)", "setting": "IL-1β; over the tested concentrations", "result": "concentration-dependent"}]}, {"compound": "C[C@@H]1C[C@H]2[C@@H]3CCC4=CC(=O)C=C[C@]4(C)[C@@]3(F)[C@@H](O)C[C@]2(C)[C@@]1(O)C(=O)CO", "note": "[DEX, dexamethason, reference compound]", "values": [{"measurement": "Concentration of TNFα in PBMCs", "setting": "TNFα; 10 μM DEX", "result": "39.5 ± 9.0", "unit": "pg/mL"}, {"measurement": "Inhibition ratio of production of TNFα in PBMCs", "setting": "TNFα; 10 μM DEX", "result": "73.2 ± 6.1", "unit": "%"}, {"measurement": "Concentration of IL-1β in PBMCs", "setting": "IL-1β; 10 μM DEX", "result": "20.2 ± 7.0", "unit": "pg/mL"}, {"measurement": "Inhibition ratio of production of IL-1β in PBMCs", "setting": "IL-1β; 10 μM DEX", "result": "82.7 ± 6.0", "unit": "%"}]}]}
